Structures are written as SMILES. Where a name gives a salt, the structure may show the parent alone. Read-outs that look alike come from different tables or passages of the source.

Experiment [1] concerns control (Neo) cells. Put plainly: Oxygen consumption rate (OCR) assay, control (Neo) HEK293 cells. Conditions: Homo sapiens, read-out: Oxygen Consumption Rate (OCR) IC50, Neo. Type of experiment: cell-based. An excerpt: (§1) Diabetologia 2011, 54 (12): 3101-3110, each incorporated by reference with regard to such testing. The compounds of the present invention are similarly tested in an oxygen consumption rate (OCR) assay to evaluate the functional activity of test compounds in cells.
(§2) In brief, the assay uses HEK293 cells stably transfected with the human OCT1, OCT2, OCT3, PMAT, or MATE1 transporters to determine a compound's relative transporter selectivity and its effect on the rate of oxygen consumption relative to control (Neo) cells. The MitoXpress Xtra oxygen-sensitive fluorophore is used to monitor oxygen consumption rates in the presence and absence of compound treatments. The analogs were tested at eight (8) different concentrations in triplicate to determine a relative IC50 value.
(§3) A summary description of the protocol is as follows:
(§4) HEK293 cells transformed with human organic cation transporters were plated in collagen coated, 96-well black-walled microclear plates (Greiner-Bio 1, #655956) at 60,000 cells per well in growth medium (DMEM (LG), 10% FBS, 400 μg/ml G418). Cells were incubated overnight to allow attachment. The outer columns (1 and 12) are not seeded with cells, as controls. The next day, plating medium was removed and replaced with 150 μL of assay medium (DMEM/F12 (PRF), 5% FBS, antibiotics) containing compound dilutions. A 3-fold serial dilution was prepared in the assay medium and transferred to the empty wells. The outer columns and column 11 received 150 μL of assay medium only. 10 μL of MitoXpress Xtra reagent was added to each test well, and 100 μL of pre-warmed mineral oil was overlayed in each well to create a seal. Dual read time-resolved fluorescence (BMG FluoStar Galaxy reader) was measured over 2 hours with measurements taken every 2 minutes. Excitation is 340 nm, Emission is 650 nm. For lifetime analysis, two measurements per well were taken: 1) delay of 30 μs, with a window of 30 μs; and 2) delay of 70 μs with a window of 30 μs. Background TRF values from A1-D1 were subtracted from all readings. A ratiometric analysis was performed to determine changes in the Lifetime fluorescence signal:Lifetime (μs) [T]=(D2−D1)/ln(W1/W2), where D is delay; W is fluorescence window value at each time point. Lifetime slopes were calculated using each Lifetime measurement over time. IC50 values were determined by plotting lifetime slope values vs. compound concentration.

Experiment [2] deals with T1, human MATE1 (Homo sapiens, UniProt Q96FL8).
T1 sequence (Q96FL8 1-570): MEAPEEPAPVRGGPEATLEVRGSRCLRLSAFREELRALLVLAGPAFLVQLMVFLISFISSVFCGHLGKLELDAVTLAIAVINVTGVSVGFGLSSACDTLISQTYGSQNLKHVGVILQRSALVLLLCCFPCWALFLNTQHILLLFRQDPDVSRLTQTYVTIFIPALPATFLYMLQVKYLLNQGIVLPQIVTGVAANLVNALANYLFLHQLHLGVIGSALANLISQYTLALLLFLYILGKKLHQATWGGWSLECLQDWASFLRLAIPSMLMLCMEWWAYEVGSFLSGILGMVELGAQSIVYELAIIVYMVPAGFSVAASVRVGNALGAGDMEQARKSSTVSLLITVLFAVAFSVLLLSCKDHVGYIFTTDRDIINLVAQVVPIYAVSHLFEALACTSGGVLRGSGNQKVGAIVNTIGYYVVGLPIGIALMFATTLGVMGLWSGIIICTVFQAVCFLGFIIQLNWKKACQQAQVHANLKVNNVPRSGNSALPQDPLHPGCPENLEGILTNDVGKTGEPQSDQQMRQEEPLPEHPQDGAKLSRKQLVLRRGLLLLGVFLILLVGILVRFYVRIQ
As to the kind of experiment: Oxygen consumption rate (OCR) assay, HEK293 cells transfected with MATE1. Conditions: for inhibition at 1000 µM: HEK293, read-out: Oxygen Consumption Rate (OCR), MATE 1, % Inhibition at 1000 μM test concentration.
Excerpt: The compounds of the present invention are similarly tested in an oxygen consumption rate (OCR) assay to evaluate the functional activity of test compounds in cells.
as §2, §3
as §4, with “Cells” for “HEK293 cells transformed with human organic cation transporters were plated in collagen coated, 96-well black-walled microclear plates (Greiner-Bio 1, #655956) at 60,000 cells per well in growth medium (DMEM (LG), 10% FBS, 400 μg/ml G418). Cells”

For experiment [3], the target named is T2, human PMAT (Homo sapiens, UniProt Q7RTT9).
T2 construct: expressed in transfected cells; host or cells: HEK293
T2 sequence (Q7RTT9 1-530): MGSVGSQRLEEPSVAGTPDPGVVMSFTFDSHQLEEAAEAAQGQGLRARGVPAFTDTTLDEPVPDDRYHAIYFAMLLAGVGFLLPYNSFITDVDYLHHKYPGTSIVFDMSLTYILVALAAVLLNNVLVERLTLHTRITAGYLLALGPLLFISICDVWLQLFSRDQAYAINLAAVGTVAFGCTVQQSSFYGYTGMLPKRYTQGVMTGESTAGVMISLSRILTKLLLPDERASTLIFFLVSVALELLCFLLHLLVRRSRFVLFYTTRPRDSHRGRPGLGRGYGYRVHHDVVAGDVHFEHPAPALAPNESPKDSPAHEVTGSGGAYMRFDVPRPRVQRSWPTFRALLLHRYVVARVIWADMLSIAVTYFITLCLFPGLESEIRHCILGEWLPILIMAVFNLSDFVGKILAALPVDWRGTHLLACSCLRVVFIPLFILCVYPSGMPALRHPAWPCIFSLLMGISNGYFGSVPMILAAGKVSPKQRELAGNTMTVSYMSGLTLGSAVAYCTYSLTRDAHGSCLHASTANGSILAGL
Put plainly: Oxygen consumption rate (OCR) assay, HEK293 cells transfected with PMAT. Type of experiment: cell-based. Conditions: for inhibition at 10 µM: HEK293 cells with human PMAT.
Excerpt: as §1, §2, §3, §4

Setting [4] is: control (Neo) HEK293 cells, MitoXpress Xtra, 2 hours.

A word on the IC50: it is the concentration that gives 50% inhibition. `Cc1cccc2c(CCNC(=N)NC(=N)N)c[nH]c12` [Ex 59, 1-[2-(7-methyl-1H-indol-3-yl)ethyl]imidodicarbonimide diamide, trifluoroacetic acid salt]: the figures for the IC50 in experiment [1] (setting [4]) and in experiment [2] were 1290 µM and 112 µM, respectively. Also, the inhibition at 10 µM in experiment [3] turned out to be 47%.

In the case of `N=C(N)NC(=N)NCCc1c[nH]c2ccc([N+](=O)[O-])cc12` [Ex 18, 1-[2-(5-nitro-1H-indol-3-yl)ethyl]imidodicarbonimide diamide, trifluoroacetic acid salt], the IC50 in experiment [1] (setting [4]) is 1410 µM. Further, the inhibition at 1000 µM in experiment [2] was -26%. Besides, the inhibition at 10 µM in experiment [3] amounted to 27%.

For the molecule `N=C(N)NC(=N)NCCc1c[nH]c2c(F)c(F)c(F)c(F)c12` [Ex 42, 1-[2-(4,5,6,7-tetrafluoro-1H-indol-3-yl)ethyl]imidodicarbonimide diamide, trifluoroacetic acid salt], the IC50 in experiment [1] (HEK293, 2 h) is 129 µM; in experiment [2] it was 183 µM; in experiment [3] it was 5 µM.

Turning to `N=C(N)NC(=N)NCCc1c[nH]c2ccccc12` [Ex 17, 1-[2-(1H-indol-3-yl)ethyl]imidodicarbonimide diamide hydrochloride], the IC50 in experiment [1] (setting [4]) was greater than 5000 µM; in experiment [2], 4840 µM. The inhibition at 10 µM in experiment [3] came to 54%.

Turning to `N=C(N)NC(=N)NCCCc1c[nH]c2ccccc12` [Ex 7, hydrochloride], the 50% inhibitory concentration (IC50) in experiment [1] (setting [4]) is greater than 10000 µM. Further, the inhibition at 1000 µM in experiment [2] was found to be 36%. For the same molecule, the inhibition at 10 µM in experiment [3] came to 7%.

As for `CN(C)C(=N)NC(=N)NCCc1c[nH]c2cc(F)ccc12` [Ex 23, 3-(2-(6-fluoro-1H-indol-3-yl)ethyl)-1,1-dimethyl imidodicarbonimide diamide hydrochloride], the 50% inhibitory concentration (IC50) in experiment [1] (setting [4]) was greater than 3000 µM; in experiment [2], greater than 10000 µM. The inhibition at 10 µM in experiment [3] was found to be 4%.

Regarding `CN(C)C(=N)NC(=N)NCCc1c[nH]c2ccc(C(F)(F)F)cc12` [Ex 32, 3-(2-(5-trifluoromethyl-1H-indol-3-yl)ethyl)-1,1-dimethyl imidodicarbonimide diamide hydrochloride], the IC50 in experiment [1] (setting [4]) amounted to 397 µM; in experiment [2], 681 µM. Moreover, the inhibition at 10 µM in experiment [3] was determined as 10%.

Turning to `Cc1ccc2c(CCNC(=N)NC(=N)N)c[nH]c2c1` [Ex 56, 1-[2-(6-methyl-1H-indol-3-yl)ethyl]imidodicarbonimide diamide, trifluoroacetate salt], the IC50 in experiment [1] (setting [4]) is 895 µM; in experiment [2], 769 µM. For the same molecule, in experiment [3], the inhibition at 10 µM worked out at 43%.

Regarding `CC(Cc1c[nH]c2ccc(F)cc12)NC(=N)NC(=N)N` (stereo not drawn) [Ex 5, 1-[1-(5-fluoro-1H-indol-3-yl)propan-2-yl]imidodicarbonimide diamide], in experiment [1] (setting [4]), the IC50 was 1880 µM. The inhibition at 1000 µM in experiment [2] was determined as 65%. The inhibition at 10 µM in experiment [3] worked out at 12%.

In the case of `N=C(N)NC(=N)NCCc1c[nH]c2c(F)c(F)c(F)cc12` [Ex 41, 1-[2-(5,6,7-trifluoro-1H-indol-3-yl)ethyl]imidodicarbonimide diamide, trifluoroacetic acid salt], the IC50 was 460 µM in experiment [1] (HEK293, 2 h); 675 µM in experiment [2]; 6 µM in experiment [3].

Turning to `N=C(N)NC(=N)NCCc1c[nH]c2cc(Cl)ccc12` [Ex 35, 1-[2-(6-chloro-1H-indol-3-yl)ethyl]imidodicarbonimide diamide, trifluoroacetic acid salt], the half-inhibitory concentration (IC50) in experiment [1] (setting [4]) was 205 µM; in experiment [2] it was 20 µM. In experiment [3], the inhibition at 10 µM turned out to be 68%.

On to `N=C(N)NC(=N)NCCc1c[nH]c2c(Cl)cccc12` [Ex 36, 1-[2-(7-chloro-1H-indol-3-yl)ethyl]imidodicarbonimide diamide, trifluoroacetic acid salt], for which the 50% inhibitory concentration (IC50) in experiment [1] (setting [4]) is 409 µM; in experiment [2], 26 µM. In addition, the inhibition at 10 µM in experiment [3] is 55%.

Consider `Cc1ccc2[nH]cc(CCNC(=N)NC(=N)N)c2c1` [Ex 10, 1-[2-(5-methyl-1H-indol-3-yl)ethyl]imidodicarbonimide diamide trifluoroacetic acid salt], for which the 50% inhibitory concentration (IC50) in experiment [1] (setting [4]) was determined as 439 µM; in experiment [2] it was 2190 µM. Also, the inhibition at 10 µM in experiment [3] came to 43%.

`N=C(N)NC(=N)NCCc1c[nH]c2ncc(F)cc12` [Ex 43, 1-(2-(5-fluoro-1H-pyrrolo[2,3-b]pyridin-3-yl)ethyl)imidodicarbonimide diamide, trifluoroacetic acid salt]: the IC50 in experiment [1] (setting [4]) worked out at 11000 µM; in experiment [2], 2230 µM; in experiment [3] (HEK293 cells stably transfected with human PMAT, MitoXpress Xtra, 2 hours, read-out: Oxygen Consumption Rate (OCR) IC50, PMAT), 23 µM.

Turning to `Cc1c(CCNC(=N)NC(=N)N)c2ccccc2n1C` [Ex 16, 1-[2-(1,2-dimethyl-1H-indol-3-yl)ethyl]imidodicarbonimide diamide], in experiment [1] (setting [4]), the IC50 is 1210 µM. Besides, the inhibition at 1000 µM in experiment [2] was 10%. Besides, the inhibition at 10 µM in experiment [3] is 36%.

`N=C(N)NC(=N)NCCc1c[nH]c2cccnc12` [Ex 21, 1-(2-(1H-pyrrolo[3,2-b]pyridin-3-yl)ethyl)imidodicarbonimide diamide acetate]: the 50% inhibitory concentration (IC50) is greater than 3000 µM in experiment [1] (setting [4]) and 1540 µM in experiment [2]. Further, the inhibition at 10 µM in experiment [3] was determined as 27%.

For the molecule `CC(C)(CNC(=N)NC(=N)N)c1c[nH]c2ccccc12` [Ex 8], in experiment [1] (setting [4]), the 50% inhibitory concentration (IC50) was greater than 1000 µM. For the same molecule, the inhibition at 1000 µM in experiment [2] was 31%. For the same molecule, the inhibition at 10 µM in experiment [3] amounted to 20%.

Regarding `Cc1[nH]c2cc(F)ccc2c1CCNC(=N)NC(=N)N` [Ex 31, 1-[2-(6-fluoro-2-methyl-1H-indol-3-yl)ethyl]imidodicarbonimide diamide, trifluoroacetic acid salt], the values for the concentration for half-maximal inhibition (IC50) in experiment [1] (setting [4]) and in experiment [2] were 4870 µM and 13400 µM, respectively. Also, in experiment [3], the inhibition at 10 µM was determined as 35%.

The values are drawn from patent publication US12371404B2, “Fused bicyclic alkylene linked imidodicarbonimidic diamides, methods for synthesis, and uses in therapy” (NovaTarg, Inc., priority 2016, dated 2025).
